According to patent US20100022476A1, “PYRAZOLYLAMINO SUBSTITUTED QUINAZOLES FOR THE TREATMENT OF CANCER” (ASTRAZENECA AB, priority 2004, published 2010):

Key:
[1] = system: SW620 human colon tumour cells; assay: In vitro cell phenotype and substrate phosphorylation assay (phosphohistone H3); format: cell-based; details: SW-620, 24 hours of treatment, read-out: EC50 for inhibition of phosphohistone H3 levels
Protocol: (c) In Vitro Cell Phenotype and Substrate Phosphorylation Assay
This assay is used to determine the cellular effects of compounds on SW620 human colon tumour cells in vitro. Compounds typically cause inhibition of levels of phosphohistone H3 and an increase in the nuclear area of the cells.
10^4 SW620 cells per well were plated in 100 μl DMEM media (containing 10% FCS and 1% glutamine) (DMEM is Dulbecco's Modified Eagle's Medium (Sigma D6546)) in costar 96 well plates and left overnight at 37° C. and 5% CO2 to adhere. The cells were then dosed with compound diluted in media (50 μl is added to each well to give 0.00015μ-1 μM concentrations of compound) and after 24 hours of treatment with compound, the cells were fixed.
The cells were first examined using a light microscope and any cellular changes in morphology were noted. 100 μl of 3.7% formaldehyde was then added to each well, and the plate was left for at least 30 minutes at room temperature. Decanting and tapping the plate on a paper towel removed the fixative and plates were then washed once in PBS (Dulbecco's Phosphate Buffered Saline (Sigma D8537)) using an automated plate washer. […]
The next day, the antibody was tipped off and the plates were washed twice with PBS. […] 100 μl PBS was added to each well and the plates were sealed ready to analyse. […]

[2] = Plasma protein binding assay (equilibrium dialysis); format: in vitro ADME; details: human plasma, 20 μM compound, dialysed 18 hours at 37° C.
Protocol: (e) Plasma Protein Binding Assay
Plasma protein binding was measured using the equilibrium dialysis technique. Compound was added to human plasma to a concentration of 20 μM and dialysed with isotonic phosphate/sodium chloride buffer for 18 hours at 37° C. The plasma and buffer solutions on each side of the dialysis membrane were analysed using a generic LCUVMS (Waters 2795 HPLC with Micromass ZQ mass spectrometer) and the percentage of free compound in 100% plasma was determined.

[3] = system: drug-resistant MCF7-ADR human breast tumour cells; assay: In vitro drug-resistant cell phenotype and substrate phosphorylation assay (phosphohistone H3); format: cell-based; details: NCI/ADR-RES, MCF7-ADR cells overexpressing drug-resistant proteins, read-out: EC50 for inhibition of phosphohistone H3 levels
Protocol: (d) In Vitro Drug-Resistant Cell Phenotype and Substrate Phosphorylation Assay.
This assay is used to determine the cellular effects of compounds on drug-resistant MCF7-ADR human breast tumour cells in vitro.
Compounds typically cause inhibition of levels of phosphohistoneH3 and an increase in the nuclear area of treated cells.
0.8×10^4 MCF7-ADR cells per well were plated in 100 μl DMEM media (containing 10% FCS (foetal calf serum) and 1% glutamine) in costar 96 well plates and left overnight at 37° C. and 5% CO2 to adhere.
All other procedures are identical to those for the above assay using SW620 cells.

- EC50 [1]: 7.6 nM
- percentage of free compound in 100% plasma [2]: 3.9%
- EC50 [3]: 400 nM
SMILES: COc1cc(OCCN(C)CCO)c2c(Nc3cc(CC(=O)Nc4cccc(F)c4F)[nH]n3)ncnc2c1 [Compound 9, N-(2,3-difluorophenyl)-2-{3-[(5-{2-[(2-hydroxyethyl)(methyl)amino]ethoxy}-7-methoxyquinazolin-4-yl)amino]-1H-pyrazol-5-yl}acetamide]
